Data reported in patent publication US10308639B2, “Phosphatidylinositol 3-kinase inhibitors” (Gilead Sciences, Inc., priority 2014, dated 2019).
Read-outs that look alike come from different tables or passages of the source.

How the values were obtained:
Format in all cases: biochemical
PI3Kβ = biological target: T1, PI3Kβ (Homo sapiens, UniProt P42338); experiment: TR-FRET enzymatic activity assay, PI3Kβ
T1 construct: made in house

PI3Kγ = biological target: T2, PI3Kγ (Homo sapiens, UniProt P48736); experiment: TR-FRET enzymatic activity assay, PI3Kγ; conditions: read-out: PI3Kγ IC50
T2 construct: made in house
T2 sequence (P48736 whole entry): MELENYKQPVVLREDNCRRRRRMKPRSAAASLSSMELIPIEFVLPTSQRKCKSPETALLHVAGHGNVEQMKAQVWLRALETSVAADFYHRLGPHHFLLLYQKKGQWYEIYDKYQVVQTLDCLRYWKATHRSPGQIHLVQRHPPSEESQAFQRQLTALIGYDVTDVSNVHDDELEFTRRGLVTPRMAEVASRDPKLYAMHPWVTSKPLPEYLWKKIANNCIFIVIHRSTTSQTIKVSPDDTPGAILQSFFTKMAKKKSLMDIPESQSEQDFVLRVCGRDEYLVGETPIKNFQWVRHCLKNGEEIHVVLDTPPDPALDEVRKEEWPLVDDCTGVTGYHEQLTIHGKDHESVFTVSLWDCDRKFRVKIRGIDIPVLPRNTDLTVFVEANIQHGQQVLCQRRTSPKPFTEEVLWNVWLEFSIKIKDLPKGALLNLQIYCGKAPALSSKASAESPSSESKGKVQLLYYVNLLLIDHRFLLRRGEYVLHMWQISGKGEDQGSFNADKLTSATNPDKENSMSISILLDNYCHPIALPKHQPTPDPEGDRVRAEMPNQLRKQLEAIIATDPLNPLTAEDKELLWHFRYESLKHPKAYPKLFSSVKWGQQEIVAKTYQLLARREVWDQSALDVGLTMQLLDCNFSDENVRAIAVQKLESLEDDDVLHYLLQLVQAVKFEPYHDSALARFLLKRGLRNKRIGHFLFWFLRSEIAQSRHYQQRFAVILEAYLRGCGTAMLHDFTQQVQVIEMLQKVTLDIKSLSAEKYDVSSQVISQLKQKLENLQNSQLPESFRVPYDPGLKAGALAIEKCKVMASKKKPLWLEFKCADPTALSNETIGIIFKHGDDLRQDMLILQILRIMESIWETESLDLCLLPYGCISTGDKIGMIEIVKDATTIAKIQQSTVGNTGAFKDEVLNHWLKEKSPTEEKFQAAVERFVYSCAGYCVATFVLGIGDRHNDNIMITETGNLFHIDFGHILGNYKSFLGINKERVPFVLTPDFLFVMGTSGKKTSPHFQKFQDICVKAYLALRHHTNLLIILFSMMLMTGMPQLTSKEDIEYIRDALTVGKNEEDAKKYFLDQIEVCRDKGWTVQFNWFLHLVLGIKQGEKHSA
Summary of the method: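 Each PI3K isoform is tested in an enzymatic format. Signal comes from time-resolved fluorescence energy transfer.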

PI3Kδ = biological target: T3, PI3Kδ (Homo sapiens, UniProt O00329); experiment: TR-FRET enzymatic activity assay, PI3Kδ
T3 construct: made in house
T3 sequence (O00329 whole entry): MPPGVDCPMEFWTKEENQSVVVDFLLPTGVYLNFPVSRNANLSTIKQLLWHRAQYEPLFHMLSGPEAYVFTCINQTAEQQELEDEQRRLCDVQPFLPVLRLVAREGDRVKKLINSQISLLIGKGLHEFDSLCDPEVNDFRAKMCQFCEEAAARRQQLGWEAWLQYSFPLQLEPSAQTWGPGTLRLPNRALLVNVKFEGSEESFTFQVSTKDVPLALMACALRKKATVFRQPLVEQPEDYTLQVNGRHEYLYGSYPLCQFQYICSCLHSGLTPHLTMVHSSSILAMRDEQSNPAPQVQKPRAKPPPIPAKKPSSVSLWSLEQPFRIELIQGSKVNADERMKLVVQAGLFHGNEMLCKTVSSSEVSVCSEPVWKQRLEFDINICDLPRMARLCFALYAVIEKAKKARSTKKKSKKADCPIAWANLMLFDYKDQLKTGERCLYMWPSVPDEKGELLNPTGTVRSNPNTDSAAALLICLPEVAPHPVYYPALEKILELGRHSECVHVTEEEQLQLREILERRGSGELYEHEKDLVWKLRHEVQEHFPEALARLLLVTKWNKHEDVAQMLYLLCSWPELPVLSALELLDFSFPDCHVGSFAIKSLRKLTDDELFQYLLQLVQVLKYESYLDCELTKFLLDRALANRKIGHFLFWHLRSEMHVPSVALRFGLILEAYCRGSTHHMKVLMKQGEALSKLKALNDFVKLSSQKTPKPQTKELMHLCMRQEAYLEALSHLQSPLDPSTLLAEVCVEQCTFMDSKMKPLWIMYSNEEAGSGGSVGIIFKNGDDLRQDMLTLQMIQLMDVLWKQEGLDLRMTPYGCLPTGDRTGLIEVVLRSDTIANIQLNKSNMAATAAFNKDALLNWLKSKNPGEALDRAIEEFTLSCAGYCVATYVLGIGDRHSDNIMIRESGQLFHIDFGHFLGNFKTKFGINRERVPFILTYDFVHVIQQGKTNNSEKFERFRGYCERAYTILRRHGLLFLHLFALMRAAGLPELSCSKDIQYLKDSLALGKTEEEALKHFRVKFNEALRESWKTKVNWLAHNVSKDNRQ
T3 sequence (P27986 whole entry partner): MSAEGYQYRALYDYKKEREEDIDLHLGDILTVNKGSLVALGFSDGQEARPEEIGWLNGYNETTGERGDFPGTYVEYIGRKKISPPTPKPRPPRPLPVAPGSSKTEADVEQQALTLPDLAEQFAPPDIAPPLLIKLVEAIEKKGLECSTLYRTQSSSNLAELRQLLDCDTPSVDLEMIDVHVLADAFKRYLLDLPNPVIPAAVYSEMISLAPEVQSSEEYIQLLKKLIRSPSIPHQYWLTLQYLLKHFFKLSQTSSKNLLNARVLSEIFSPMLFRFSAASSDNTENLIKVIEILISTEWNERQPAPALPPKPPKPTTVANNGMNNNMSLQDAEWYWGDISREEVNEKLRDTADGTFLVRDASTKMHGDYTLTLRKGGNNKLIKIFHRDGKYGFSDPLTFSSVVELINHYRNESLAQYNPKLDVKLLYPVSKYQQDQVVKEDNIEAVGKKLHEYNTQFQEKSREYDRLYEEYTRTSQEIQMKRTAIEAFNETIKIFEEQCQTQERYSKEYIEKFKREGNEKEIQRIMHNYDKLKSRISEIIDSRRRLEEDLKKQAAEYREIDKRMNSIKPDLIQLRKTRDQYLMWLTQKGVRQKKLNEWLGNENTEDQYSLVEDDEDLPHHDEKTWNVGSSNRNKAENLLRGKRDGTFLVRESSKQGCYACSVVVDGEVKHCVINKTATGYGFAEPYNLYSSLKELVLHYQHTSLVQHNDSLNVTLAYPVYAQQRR

[1] = Table 2, TR-FRET, 2x Km ATP, 30 minutes at 25° C.

T1 sequence (P42338 whole entry): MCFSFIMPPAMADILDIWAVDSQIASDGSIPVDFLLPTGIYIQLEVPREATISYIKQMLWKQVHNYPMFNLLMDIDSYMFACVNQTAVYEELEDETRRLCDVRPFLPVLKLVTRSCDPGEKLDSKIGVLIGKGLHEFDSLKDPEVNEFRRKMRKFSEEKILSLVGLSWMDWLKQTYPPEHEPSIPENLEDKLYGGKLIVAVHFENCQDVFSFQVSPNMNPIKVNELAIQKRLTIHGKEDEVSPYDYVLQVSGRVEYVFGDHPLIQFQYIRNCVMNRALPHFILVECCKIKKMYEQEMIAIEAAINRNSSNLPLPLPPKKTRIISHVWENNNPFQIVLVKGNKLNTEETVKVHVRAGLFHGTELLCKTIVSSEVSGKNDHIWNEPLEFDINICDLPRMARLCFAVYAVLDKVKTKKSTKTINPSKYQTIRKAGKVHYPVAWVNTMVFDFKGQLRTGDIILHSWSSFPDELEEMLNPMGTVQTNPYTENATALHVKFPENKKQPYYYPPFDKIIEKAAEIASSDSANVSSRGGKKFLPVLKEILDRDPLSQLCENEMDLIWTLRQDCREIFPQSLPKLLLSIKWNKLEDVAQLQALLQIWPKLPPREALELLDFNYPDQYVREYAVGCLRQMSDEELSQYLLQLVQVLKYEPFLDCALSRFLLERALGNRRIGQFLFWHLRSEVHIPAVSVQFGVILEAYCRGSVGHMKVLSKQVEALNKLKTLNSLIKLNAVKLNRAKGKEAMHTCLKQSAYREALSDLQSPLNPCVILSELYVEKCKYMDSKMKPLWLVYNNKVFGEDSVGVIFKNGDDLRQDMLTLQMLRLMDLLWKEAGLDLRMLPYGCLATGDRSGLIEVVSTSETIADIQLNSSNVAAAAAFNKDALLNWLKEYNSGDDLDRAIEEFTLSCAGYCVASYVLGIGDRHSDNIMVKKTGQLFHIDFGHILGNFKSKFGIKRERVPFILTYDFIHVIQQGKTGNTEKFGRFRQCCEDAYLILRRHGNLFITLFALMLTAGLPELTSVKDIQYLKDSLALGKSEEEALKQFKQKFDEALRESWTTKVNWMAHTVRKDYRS
T1 sequence (P27986 whole entry partner): as the sequence (P27986 whole entry partner) above

IC50 (PI3Kβ; Table 2a, same assay) [nM] | IC50 (PI3Kγ; Table 2a, same assay) [nM] | IC50 (PI3Kδ; Table 2a, same assay) [nM] | IC50 (PI3Kβ; [1]) [nM] | IC50 (PI3Kγ; [1]) [nM] | IC50 (PI3Kδ; [1]) [nM] | IC50 (PI3Kγ) [nM] | SMILES
370 | > 10000 | 48 |  |  |  |  | Nc1nc(N)c(Cl)c(N[C@H](c2nc3c(Cl)cc(F)cc3c(=O)n2-c2c[nH]cn2)C2CC2)n1 [Compound 280, (S)-8-chloro-2-(cyclopropyl((2,6-diamino-5-chloropyrimidin-4-yl)amino)methyl)-6-fluoro-3-(1H-imidazol-4-yl)quinazolin-4(3H)-one]
 |  |  | 1 | 43 | 0.4 |  | C[C@H](Nc1nc(N)nc(N)c1C#N)c1nc2cccc(Cl)c2c(=O)n1-c1cn[nH]c1 [Compound 15, (S)-2,4-diamino-6-((1-(5-chloro-4-oxo-3-(1H-pyrazol-4-yl)-3,4-dihydroquinazolin-2-yl)ethyl)amino)pyrimidine-5-carbonitrile]
 |  |  | 9 | 230 | 2 |  | CC[C@H](Nc1nc(N)nc(N)c1C#N)c1nc2cccc(Cl)c2c(=O)n1-c1cn[nH]c1 [Compound 21, (S)-2,4-diamino-6-((1-(5-chloro-4-oxo-3-(1H-pyrazol-4-yl)-3,4-dihydroquinazolin-2-yl)propyl)amino)pyrimidine-5-carbonitrile]
5 | 900 | 2 |  |  |  |  | CCC[C@H](Nc1nc(N)nc(N)c1C#N)c1nc2ccc(F)c(Cl)c2c(=O)n1-c1cc[nH]n1 [Compound 268, (S)-2,4-diamino-6-((1-(5-chloro-6-fluoro-4-oxo-3-(1H-pyrazol-3-yl)-3,4-dihydroquinazolin-2-yl)butyl)amino)pyrimidine-5-carbonitrile]
 |  |  | 44 |  | 20 | > 10000 | CC[C@H](Nc1nc(N)nc(N)c1Cl)c1nc2c(F)ccc(Cl)c2c(=O)n1-c1cc[nH]n1 [Compound 68, (S)-5-chloro-2-(1-((2,6-diamino-5-chloropyrimidin-4-yl)amino)propyl)-8-fluoro-3-(1H-pyrazol-3-yl)quinazolin-4(3H)-one]
16 | 680 | 8 |  |  |  |  | C[C@H](Nc1nc(N)nc(C(F)F)c1C#N)c1nc2cccc(Cl)c2c(=O)n1-c1cc[nH]n1 [Compound 166, (S)-2-amino-4-((1-(5-chloro-4-oxo-3-(1H-pyrazol-3-yl)-3,4-dihydroquinazolin-2-yl)ethyl)amino)-6-(difluoromethyl)pyrimidine-5-carbonitrile]
42 | 2200 | 7 |  |  |  |  | Cc1n[nH]cc1-n1c([C@@H](Nc2nc(N)nc(N)c2C#N)C2CC2)nc2c(Cl)cc(F)cc2c1=O [Compound 220, (S)-2,4-diamino-6-(((8-chloro-6-fluoro-3-(3-methyl-1H-pyrazol-4-yl)-4-oxo-3,4-dihydroquinazolin-2-yl)(cyclopropyl)methyl)amino)pyrimidine-5-carbonitrile]
 |  |  | 22 |  | 12 | > 10000 | CC[C@H](Nc1nc(N)nc(Cl)c1C#N)c1nc2c(C#N)cccc2c(=O)n1-c1cc[nH]n1 [Compound 96, (S)-2-(1-((2-amino-6-chloro-5-cyanopyrimidin-4-yl)amino)propyl)-4-oxo-3-(1H-pyrazol-3-yl)-3,4-dihydroquinazoline-8-carbonitrile]
 |  |  | 18 | 4200 | 9 |  | CC[C@H](Nc1nc(N)nc(N)c1Cl)c1nc2cccc(Cl)c2c(=O)n1-c1cc[nH]n1 [Compound 65, (S)-5-chloro-2-(1-((2,6-diamino-5-chloropyrimidin-4-yl)amino)propyl)-3-(1H-pyrazol-3-yl)quinazolin-4(3H)-one]
 |  |  | 14 | 6700 | 12 |  | CCC[C@H](Nc1nc(N)nc(N)c1Cl)c1nc2cccc(Cl)c2c(=O)n1-c1cc[nH]n1 [Compound 124, (S)-5-chloro-2-(1-((2,6-diamino-5-chloropyrimidin-4-yl)amino)butyl)-3-(1H-pyrazol-3-yl)quinazolin-4(3h)-one]
 |  |  | 3100 |  | 1900 | > 10000 | Cc1n[nH]c2nc(Cl)nc(N[C@@H](C)c3nc4cccc(Cl)c4c(=O)n3-c3cc[nH]n3)c12 [Compound 89, (S)-5-chloro-2-(1-((6-chloro-3-methyl-1H-pyrazolo[3,4-d]pyrimidin-4-yl)amino)ethyl)-3-(1H-pyrazol-3-yl)quinazolin-4(3H)-one]
 |  |  | 22 | 780 | 4 |  | N#Cc1c(N)nc(N)nc1N1CCC[C@H]1c1nc2cccc(Cl)c2c(=O)n1-c1cc[nH]n1 [Compound 24, (S)-2,4-diamino-6-(2-(5-chloro-4-oxo-3-(1H-pyrazol-3-yl)-3,4-dihydroquinazolin-2-yl)pyrrolidin-1-yl)pyrimidine-5-carbonitrile]
 |  |  | 220 |  | 51 | > 10000 | Nc1nc(N)c(Cl)c(N[C@H](c2nc3c(F)cccc3c(=O)n2-c2cc[nH]n2)C2CC2)n1 [Compound 12, (S)-2-(cyclopropyl((2,6-diamino-5-chloropyrimidin-4-yl)amino)methyl)-8-fluoro-3-(1H-pyrazol-3-yl)quinazolin-4(3H)-one]
3 | 120 | 2 |  |  |  |  | C[C@H](Nc1nc(N)nc(N)c1C#N)c1nc2cccc(C(F)(F)F)c2c(=O)n1-c1cn[nH]c1 [Compound 206, (S)-2,4-diamino-6-((1-(4-oxo-3-(1H-pyrazol-4-yl)-5-(trifluoromethyl)-3,4-dihydroquinazolin-2-yl)ethyl)amino)pyrimidine-5-carbonitrile]
 |  |  | 210 |  | 44 | > 10000 | CC[C@H](Nc1nc(N)nc(N)c1Cl)c1nc2ccc(F)cc2c(=O)n1-c1cc[nH]n1 [Compound 116, (S)-2-(1-((2,6-diamino-5-chloropyrimidin-4-yl)amino)propyl)-6-fluoro-3-(1H-pyrazol-3-yl)quinazolin-4(3h)-one]
9 | 5000 | 8 |  |  |  |  | C[C@H](Nc1nc(N)nc(N)c1Cl)c1nc2c(Cl)ccc(C(F)F)c2c(=O)n1-c1cc[nH]n1 [Compound 227, (S)-8-chloro-2-(1-((2,6-diamino-5-chloropyrimidin-4-yl)amino)ethyl)-5-(difluoromethyl)-3-(1H-pyrazol-3-yl)quinazolin-4(3H)-one]
 |  |  | 37 | 160 | 110 |  | C[C@H](NC(=O)c1c(N)nn2cccnc12)c1nc2cccc(Cl)c2c(=O)n1-c1cc[nH]n1 [Compound 117, (S)-2-amino-N-(1-(5-chloro-4-oxo-3-(1H-pyrazol-3-yl)-3,4-dihydroquinazolin-2-yl)ethyl)pyrazolo[1,5-a]pyrimidine-3-carboxamide]
2 | 220 | 0.7 |  |  |  |  | C[C@H](Nc1nc(N)nc(N)c1C#N)c1nc2ccc(F)c(Cl)c2c(=O)n1-c1cc[nH]n1 [Compound 260, (S)-2,4-diamino-6-((1-(5-chloro-6-fluoro-4-oxo-3-(1H-pyrazol-3-yl)-3,4-dihydroquinazolin-2-yl)ethyl)amino)pyrimidine-5-carbonitrile]
 |  |  | 530 |  | 720 | > 10000 | CC[C@H](NC(=O)c1cnn2cccnc12)c1nc2c(Cl)ccc(Cl)c2c(=O)n1-c1cc[nH]n1 [Compound 120, (S)—N-(1-(5,8-dichloro-4-oxo-3-(1H-pyrazol-3-yl)-3,4-dihydroquinazolin-2-yl)propyl)pyrazolo[1,5-a]pyrimidine-3-carboxamide]
 |  |  | 17 | 3700 | 16 |  | CC[C@H](Nc1nc(N)nc(N)c1C#N)c1nc2cccc(C#N)c2c(=O)n1-c1cc[nH]n1 [Compound 97, (S)-2-(1-((2,6-diamino-5-cyanopyrimidin-4-yl)amino)propyl)-4-oxo-3-(1H-pyrazol-3-yl)-3,4-dihydroquinazoline-5-carbonitrile]
 |  |  | 5 | 680 | 3 |  | N#Cc1c(N)nc(N)nc1N[C@@H](c1ccccc1)c1nc2cccc(Cl)c2c(=O)n1-c1cc[nH]n1 [Compound 105, (S)-2,4-diamino-6-(((5-chloro-4-oxo-3-(1H-pyrazol-3-yl)-3,4-dihydroquinazolin-2-yl)(phenyl)methyl)amino)pyrimidine-5-carbonitrile]
31 | 9900 | 8 |  |  |  |  | C[C@H](Nc1nc(N)nc(C(F)F)c1C#N)c1nc2c(Cl)ccc(Cl)c2c(=O)n1-c1cc[nH]n1 [Compound 190, (S)-2-amino-4-((1-(5,8-dichloro-4-oxo-3-(1H-pyrazol-3-yl)-3,4-dihydroquinazolin-2-yl)ethyl)amino)-6-(difluoromethyl)pyrimidine-5-carbonitrile]
37 | > 10000 | 5 |  |  |  |  | Cc1c[nH]nc1-n1c([C@@H](Nc2nc(N)nc(C)c2C#N)C2CC2)nc2c(C#N)cccc2c1=O [Compound 203, (S)-2-(((2-amino-5-cyano-6-methylpyrimidin-4-yl)amino)(cyclopropyl)methyl)-3-(4-methyl-1H-pyrazol-3-yl)-4-oxo-3,4-dihydroquinazoline-8-carbonitrile]
 |  |  | 84 | 2000 | 22 |  | CC[C@H](Nc1nc(N)nc(N)c1C#N)c1nc2c(C)cccc2c(=O)n1-c1cn[nH]c1 [Compound 33, (S)-2,4-diamino-6-((1-(8-methyl-4-oxo-3-(1H-pyrazol-4-yl)-3,4-dihydroquinazolin-2-yl)propyl)amino)pyrimidine-5-carbonitrile]

SMILES | IC50 (PI3Kβ; Table 2a, same assay) [nM] | IC50 (PI3Kγ; Table 2a, same assay) [nM] | IC50 (PI3Kδ; Table 2a, same assay) [nM] | IC50 (PI3Kβ; [1]) [nM] | IC50 (PI3Kγ; [1]) [nM] | IC50 (PI3Kδ; [1]) [nM] | IC50 (PI3Kγ) [nM]
C[C@H](Nc1ncnc2sccc12)c1nc2cccc(Cl)c2c(=O)n1-c1cc[nH]n1 [Compound 60, (S)-5-chloro-3-(1H-pyrazol-3-yl)-2-(1-(thieno[2,3-d]pyrimidin-4-ylamino)ethyl)quinazolin-4(3H)-one] |  |  |  | 43 |  | 2 | > 10000
